{"source": "patent US20200360465A1", "about": "“METHOD OF TREATING LOWER URINARY TRACT SYMPTOMS WITH FEXAPOTIDE TRIFLUTATE” (Nymox Corporation, priority 2019, published 2020)", "key": {"[1]": {"system": "Patients with BPH and who optionally also had LUTS", "assay": "Clinical trial: inability to provide urine volume >125 mL (Qmax unable / Qmax failure) after intraprostatic injection", "assay_type": "in vivo, human", "experimental": "(§1) Clinical trials were conducted on numerous individuals having BPH, some of whom also had LUTS. All protocols were done in accordance with applicable regulations, and carried out by physicians.\nPatients with BPH and who optionally also had LUTS were given an intraprostatic injection of either a) FT 2.5 mg in phosphate buffered saline pH 7.2 (“PBS”) or b) PBS alone, under double-blind conditions by a urologist in an office setting under ultrasound guidance. Patients were followed for 12 months to several years with regular physical examinations, laboratory tests, and evaluations of symptoms. Urinary peak flow (Qmax) was measured by flow meter readings using standard techniques, at baseline, and at 12 months in subjects who were able to urinate adequate volume of urine (>125 mL) to provide a valid test. Subjects who were unable to void >=125 mL despite drinking as much water as they wanted were classified as “Qmax unable.” The numbers of subjects who became Qmax unable was compared in different groups."}, "[2]": {"system": "Patients with BPH and who optionally also had LUTS", "assay": "Clinical trial: deterioration/worsening in urinary peak flow rate (Qmax worsening) after intraprostatic injection", "assay_type": "in vivo, human", "experimental": "as §1\nPatients with BPH and who optionally also had LUTS were given an intraprostatic injection of either a) FT 2.5 mg in phosphate buffered saline pH 7.2 (“PBS”) or b) PBS alone, under double-blind conditions by a urologist in an office setting under ultrasound guidance. Patients were followed for 12 months to several years with regular physical examinations, laboratory tests, and evaluations of symptoms. Urinary peak flow (Qmax) was measured by flow meter readings using standard techniques, at 3 months and at 12 months."}, "[3]": {"system": "Patients with BPH and who optionally also had LUTS", "assay": "Clinical trial: nocturia frequency by patient questionnaires after intraprostatic injection", "assay_type": "in vivo, human", "text": "Improvements in obstructive and irritative symptoms can be measured in accordance with techniques known in the art. For example, uroflowmeters are known to differentiate urine weight change to provide a continuous plot of the flow rate vs. time that is smoothed by internal electronic filtering to permit precise (±5%) measurement of Qmax. Schafer W, et al. “Good urodynamic practices: Uroflowmetry, filling cystometry and pressure-flow studies,” Neurourol Urodynamics, Vol. 21, pp. 261-74 (2002). Nocturia can be measured in a variety of manners, most of which involve patients completing a questionnaire before and after treatment to establish a baseline, and then determine the difference (improvement, lack of improvement, worsening, etc.) from baseline after treatment. Exemplary questionnaires include evaluating the scores from the nocturia question included in the International Prostate Symptom Score (IPSS), assessing the number of nocturnal voids (Boyarsky symptom score), the Madsen-Iversen Symptom Score, and the ICSmale questionnaire. See, e.g., Chartier-Kastler, et al., “The Measurement of Nocturia and its Impact on Quality of Sleep and Quality of Life in LUTS/BPH,” Eur. Urol. Supp., Vol. 5, pp. 3-11 (2006). A preferred method of measuring nocturia is by determining the mean change from baseline of the nocturia question in the IPSS (question 7). Question 7 solicits from the patient how many times over the past month they had to get up to urinate from the time they went to bed until the time they got up—the score ranging from none (score 0) to 5 or more times (score 5).\nas §1\nPatients with BPH and who optionally also had LUTS were given an intraprostatic injection of either a FT2.5 in 10 mL phosphate buffered saline pH 7.2 (“PBS”) or PBS 10 mL alone, under double-blind conditions by a urologist in an office setting under ultrasound guidance. Patients were followed for 12 months with regular physical examinations, laboratory tests, and evaluations of symptoms. The mean frequency of nocturia in the prior month was recorded in patient questionnaires."}, "[4]": {"system": "prostate glandular epithelial cells", "assay": "In vitro tissue culture genetic array: apoptosis pathway activation", "assay_type": "cell-based", "text": "FT is a new molecular entity which in vitro stimulates caspase pathways (activation of caspases 7, 8, and 10, caspase recruitment domains 6, 11, and 14, and DIABLO), tumor necrosis factor pathways (activation of TNF1, TNFSF6, TNFSF8, TNFSF9, CD70 ligands, and TNFRSF19L, TNFRSF25, TRAF2, TRAF3, TRAF4, TRAF6 receptors), and BCL pathways (activation of BIK, HRK, BCL2L10 and BCL3) in prostate glandular epithelial cells, based on tissue culture genetic array data. FT selectively causes loss of cell membrane integrity, mitochondrial metabolic arrest, depletion of RNA, DNA lysis and aggregation, and cell fragmentation and cell loss. The apoptotic process leads to typical ultrastructural progressive changes of membranous disruption and swelling, progressively deepening nuclear invaginations with eventual membranous bleb formations and cell death and fragmentation into apoptotic bodies. Histologically, typical apoptotic changes with positive immunohistochemical staining of markers for apoptosis are found throughout the injected areas for up to several weeks after treatment."}, "[5]": {"conditions": "about 3 months after single dose of FT ≥2.5 mg, vs control"}}, "note": "Marks after values point to notes of the source that are not given here. Where no end group is shown, it is not given here.", "data": [{"substance": "Fexapotide Triflutate (IDQQVLSRIKLEIKRCL; also: trifluoroacetate salt) [FT]", "values": [{"measurement": "% of Qmax Unable at 12 months (% of patients with inability to provide urine volume >125 mL)", "setting": "[1]; 12 months after single intraprostatic dose of 2.5 mg FT, placebo 5.9%", "result": 4.5, "unit": "%"}, {"measurement": "mean flow rate improvements, FT treated patients versus controls", "setting": "[1]; Qmax at baseline and 12 months, FT 2.5 mg vs PBS", "result": "similar"}, {"measurement": "percent decrease in patients unable to provide urine volume ≥125 ml compared to control", "setting": "[1]; [5]", "result": "≈ 10%"}, {"measurement": "percentage of patients unable to provide a urine volume of ≥125 ml", "setting": "[1]; about 3 months after single dose of FT ≥2.5 mg, control 4.3%", "result": 3.9, "unit": "%"}, {"measurement": "% of Qmax Worsening at 12 months", "setting": "[2]; 12 months after single intraprostatic dose of 2.5 mg FT, placebo 42%, p = 0.0239", "result": 35, "unit": "%"}, {"measurement": "flow rate mean improvements, FT treated group versus control group", "setting": "[2]; Qmax at 3 months and 12 months, FT 2.5 mg vs PBS", "result": "similar"}, {"measurement": "percent decrease in patients with deterioration/worsening in peak flow rate compared to control", "setting": "[2]; [5]", "result": "≈ 5.1%"}, {"measurement": "percentage of patients who showed deterioration/worsening in peak flow rate", "setting": "[2]; about 3 months after single dose of FT ≥2.5 mg, control 37%", "result": 35.2, "unit": "%"}, {"measurement": "improvement in percentage of patients with Nocturia frequency change >0 from baseline to 12 months compared to control", "setting": "[3]; 12 months after single dose of 2.5 mg FT, vs vehicle control", "result": "about 36%"}, {"measurement": "mean improvement in frequency of nocturia per night, FT treated subjects versus controls", "setting": "[3]; 12 months follow-up, FT 2.5 mg vs PBS", "result": "similar"}, {"measurement": "improvement in mean nocturia frequency points improvement from baseline versus control", "setting": "[3]; after 3 months, single dose of FT 2.5 mg, not significantly better than control", "result": "~8", "unit": "%"}, {"measurement": "% of Patients With Nocturia Frequency Change >0 from Baseline to 12 Months", "setting": "[3]; single intraprostatic dose of 2.5 mg FT, placebo 19.19%, p = 0.0425 vs. Vehicle alone", "result": 14.15, "unit": "%*"}, {"measurement": "BCL pathways (activation of BIK, HRK, BCL2L10 and BCL3)", "setting": "[4]", "result": "stimulates"}, {"measurement": "caspase pathways (activation of caspases 7, 8, and 10, caspase recruitment domains 6, 11, and 14, and DIABLO)", "setting": "[4]", "result": "stimulates"}, {"measurement": "tumor necrosis factor pathways (activation of TNF1, TNFSF6, TNFSF8, TNFSF9, CD70 ligands, TNFRSF19L, TNFRSF25, TRAF2, TRAF3, TRAF4, TRAF6 receptors)", "setting": "[4]", "result": "stimulates"}]}]}
